For assay [1], the target named is T1, TYK2 (Homo sapiens, UniProt P29597).
T1 construct: endogenous in cells; host or cells: Molt4 (ATCC CRL-1582) and Ramos (ATCC CRL-1596), mixed lysate 1:2
In words: Kinobeads assay, TYK2. The settings on record: mixed Molt4/Ramos lysate, read-out: Inhibition values (IC50) TYK2. It is filed as binding. The protocol: The compounds of the present invention as described in the previous examples were tested in a Kinobeads™ assay as described for ZAP-70 (WO-A 2007/137867). Briefly, test compounds (at various concentrations) and the affinity matrix with the immobilized aminopyrido-pyrimidine ligand 24 were added to cell lysate aliquots and allowed to bind to the proteins in the lysate sample. After the incubation time the beads with captured proteins were separated from the lysate. Bound proteins were then eluted and the presence of JAK1, JAK2, JAK3 and TYK2 was detected and quantified using specific antibodies in a dot blot procedure and the Odyssey infrared detection system. Dose response curves for individual kinases were generated and IC50 values calculated. Kinobeads™ assays for ZAP-70 (WO-A 2007/137867) and for kinase selectivity profiling (WO-A 2006/134056) have been previously described.
The affinity matrix was washed two times with 15 mL of lx DP buffer containing 0.2% NP40 (IGEPAL® CA-630, Sigma, #13021) and then resuspended in 1×DP buffer containing 0.2% NP40 (3% beads slurry).
(§1) 5×DP buffer: 250 mM Tris-HCl pH 7.4, 25% Glycerol, 7.5 mM MgCl2, 750 mM NaCl, 5 mM Na3VO4; filter the 5×DP buffer through a 0.22 μm filter and store in aliquots at −80° C. The 5×DP buffer is diluted with H2O to 1×DP buffer containing 1 mM DTT and 25 mM NaF.
Stock solutions of test compounds were prepared in DMSO. In a 96 well plate […] solution of diluted test compounds at 5 mM in DMSO were prepared. Starting with this solution a 1:3 dilution series (9 steps) was prepared. For control experiments (no test compound) a buffer containing 2% DMSO was used.
Molt4 cells (ATCC catalogue number CRL-1582) and Ramos cells (ATCC catalogue number CRL-1596) were grown in 1 L Spinner flasks (Integra Biosciences, #182101) in suspension in RPMI 1640 medium (Invitrogen, #21875-034) supplemented with 10% Fetal Bovine Serum (Invitrogen) at a density between 0.15×10^6 and 1.2×10^6 cells/mL. Cells were harvested by centrifugation, washed once with 1×PBS buffer (Invitrogen, #14190-094) and cell pellets were frozen in liquid nitrogen and subsequently stored at −80° C. Cells were homogenized in a Potter S homogenizer in lysis buffer: 50 mM Tris-HCl, 0.8% NP40, 5% glycerol, 150 mM NaCl, 1.5 mM MgCl2, 25 mM NaF, 1 mM sodium vanadate, 1 mM DTT, pH 7.5. One complete EDTA-free tablet (protease inhibitor cocktail, Roche Diagnostics, 1873580) per 25 mL buffer was added. The material was dounced 10 times using a mechanized POTTER S, transferred to 50 mL falcon tubes, incubated for 30 minutes on ice and spun down for 10 minutes at 20,000 g at 4° C. (10,000 rpm in Sorvall SLA600, precooled). The supernatant was transferred to an ultracentrifuge (UZ)-polycarbonate tube (Beckmann, 355654) and spun for 1 hour at 100.000 g at 4° C. (33.500 rpm in Ti50.2, precooled). The supernatant was transferred again to a fresh 50 mL falcon tube, the protein concentration was determined by a Bradford assay (BioRad) and samples containing 50 mg of protein per aliquot were prepared. The samples were immediately used for experiments or frozen in liquid nitrogen and stored frozen at −80° C.
Cell lysate (approximately 50 mg protein per plate) was thawed in a water bath at room temperature and then stored on ice. To the thawed cell lysate 1×DP 0.8% NP40 buffer containing protease inhibitors (1 tablet for 25 mL buffer; EDTA-free protease inhibitor cocktail; Roche Diagnostics 1873580) was added in order to reach a final protein concentration of 10 mg/mL total protein. The diluted cell lysate was stored on ice. Mixed Molt4/Ramos lysate was prepared by combining one volume of Molt4 lysate and two volumes of Ramos lysate (ratio 1:2).
To a 96 well filter plate (Multiscreen HTS, BV Filter Plates, Millipore #MSBVN1250) were added per well: 100 μL affinity matrix (3% beads slurry), […], of compound solution, and 50 μL of diluted lysate. […]

Assay [2] deals with T2, JAK1 (Homo sapiens, UniProt P23458).
T2 construct: endogenous in cells; host or cells: Molt4 (ATCC CRL-1582) and Ramos (ATCC CRL-1596), mixed lysate 1:2
Put plainly: Kinobeads assay, JAK1. It is filed as binding. The following applies: mixed Molt4/Ramos lysate, read-out: Inhibition values (IC50) JAK1. The procedure:
After the incubation time the beads with captured proteins were separated from the lysate. Bound proteins were then eluted and the presence of JAK1, JAK2, JAK3 and TYK2 was detected and quantified using specific antibodies in a dot blot procedure and the Odyssey infrared detection system. Dose response curves for individual kinases were generated and IC50 values calculated.
as §1
Stock solutions of test compounds were prepared in DMSO. […] Starting with this solution a 1:3 dilution series (9 steps) was prepared. For control experiments (no test compound) a buffer containing 2% DMSO was used.
Cells were homogenized in a Potter S homogenizer in lysis buffer: 50 mM Tris-HCl, 0.8% NP40, 5% glycerol, 150 mM NaCl, 1.5 mM MgCl2, 25 mM NaF, 1 mM sodium vanadate, 1 mM DTT, pH 7.5. […] The material was dounced 10 times using a mechanized POTTER S, transferred to 50 mL falcon tubes, incubated for 30 minutes on ice and spun down for 10 minutes at 20,000 g at 4° C. (10,000 rpm in Sorvall SLA600, precooled). […] (33.500 rpm in Ti50.2, precooled). The supernatant was transferred again to a fresh 50 mL falcon tube, the protein concentration was determined by a Bradford assay (BioRad) and samples containing 50 mg of protein per aliquot were prepared. The samples were immediately used for experiments or frozen in liquid nitrogen and stored frozen at −80° C.
Cell lysate (approximately 50 mg protein per plate) was thawed in a water bath at room temperature and then stored on ice. […] The diluted cell lysate was stored on ice. Mixed Molt4/Ramos lysate was prepared by combining one volume of Molt4 lysate and two volumes of Ramos lysate (ratio 1:2).
Plates were sealed and incubated for 3 hours in a cold room on a plate shaker (Heidolph tiramax 1000) at 750 rpm. Afterwards the plate was washed 3 times with 230 μL washing buffer (1×DP 0.4% NP40). […] The eluate was frozen quickly at −80° C. and stored at −20° C.
Afterwards the membrane was washed twice for 10 minutes with PBS buffer containing 0.2% Tween 20 at room temperature. […] Afterwards the membrane was washed twice for 10 minutes each with 1×PBS buffer containing 0.2% Tween 20 at room temperature. Then the membrane was rinsed once with PBS buffer to remove residual Tween 20. The membrane was kept in PBS buffer at 4° C. and then scanned with the Odyssey instrument. Fluorescence signals were recorded and analysed according to the instructions of the manufacturer.

Molecules are shown by their SMILES.

T1 sequence (P29597 whole entry): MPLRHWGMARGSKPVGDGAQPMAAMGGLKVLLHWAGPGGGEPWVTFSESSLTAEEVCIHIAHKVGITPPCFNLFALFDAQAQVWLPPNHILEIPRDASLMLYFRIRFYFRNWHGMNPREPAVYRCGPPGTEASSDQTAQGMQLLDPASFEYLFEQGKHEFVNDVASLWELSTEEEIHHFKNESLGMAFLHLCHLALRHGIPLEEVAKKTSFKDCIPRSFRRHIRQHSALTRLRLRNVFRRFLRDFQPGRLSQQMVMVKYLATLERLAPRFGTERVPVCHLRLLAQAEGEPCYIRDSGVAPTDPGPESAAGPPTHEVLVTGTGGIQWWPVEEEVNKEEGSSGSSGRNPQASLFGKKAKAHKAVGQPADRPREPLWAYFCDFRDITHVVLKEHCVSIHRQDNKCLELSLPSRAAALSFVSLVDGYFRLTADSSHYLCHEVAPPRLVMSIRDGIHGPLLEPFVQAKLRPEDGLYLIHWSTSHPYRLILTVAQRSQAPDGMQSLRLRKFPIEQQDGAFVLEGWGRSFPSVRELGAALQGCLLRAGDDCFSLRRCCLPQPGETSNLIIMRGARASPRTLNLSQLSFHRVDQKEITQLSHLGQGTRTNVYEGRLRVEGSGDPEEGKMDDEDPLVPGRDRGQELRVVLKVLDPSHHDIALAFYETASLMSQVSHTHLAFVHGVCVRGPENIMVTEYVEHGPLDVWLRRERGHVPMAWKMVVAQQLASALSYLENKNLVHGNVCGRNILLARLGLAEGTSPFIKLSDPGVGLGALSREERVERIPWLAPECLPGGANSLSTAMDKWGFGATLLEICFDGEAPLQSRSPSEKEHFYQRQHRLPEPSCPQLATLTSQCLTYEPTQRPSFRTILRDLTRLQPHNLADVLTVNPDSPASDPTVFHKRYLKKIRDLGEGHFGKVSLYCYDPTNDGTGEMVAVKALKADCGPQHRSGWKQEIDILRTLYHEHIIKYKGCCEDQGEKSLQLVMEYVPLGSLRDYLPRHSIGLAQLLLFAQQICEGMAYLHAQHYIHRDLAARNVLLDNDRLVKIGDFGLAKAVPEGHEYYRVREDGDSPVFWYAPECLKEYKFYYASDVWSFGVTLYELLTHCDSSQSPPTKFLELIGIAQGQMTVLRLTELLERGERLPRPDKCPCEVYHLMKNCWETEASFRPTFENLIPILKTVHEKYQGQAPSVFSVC
T2 sequence (P23458 whole entry): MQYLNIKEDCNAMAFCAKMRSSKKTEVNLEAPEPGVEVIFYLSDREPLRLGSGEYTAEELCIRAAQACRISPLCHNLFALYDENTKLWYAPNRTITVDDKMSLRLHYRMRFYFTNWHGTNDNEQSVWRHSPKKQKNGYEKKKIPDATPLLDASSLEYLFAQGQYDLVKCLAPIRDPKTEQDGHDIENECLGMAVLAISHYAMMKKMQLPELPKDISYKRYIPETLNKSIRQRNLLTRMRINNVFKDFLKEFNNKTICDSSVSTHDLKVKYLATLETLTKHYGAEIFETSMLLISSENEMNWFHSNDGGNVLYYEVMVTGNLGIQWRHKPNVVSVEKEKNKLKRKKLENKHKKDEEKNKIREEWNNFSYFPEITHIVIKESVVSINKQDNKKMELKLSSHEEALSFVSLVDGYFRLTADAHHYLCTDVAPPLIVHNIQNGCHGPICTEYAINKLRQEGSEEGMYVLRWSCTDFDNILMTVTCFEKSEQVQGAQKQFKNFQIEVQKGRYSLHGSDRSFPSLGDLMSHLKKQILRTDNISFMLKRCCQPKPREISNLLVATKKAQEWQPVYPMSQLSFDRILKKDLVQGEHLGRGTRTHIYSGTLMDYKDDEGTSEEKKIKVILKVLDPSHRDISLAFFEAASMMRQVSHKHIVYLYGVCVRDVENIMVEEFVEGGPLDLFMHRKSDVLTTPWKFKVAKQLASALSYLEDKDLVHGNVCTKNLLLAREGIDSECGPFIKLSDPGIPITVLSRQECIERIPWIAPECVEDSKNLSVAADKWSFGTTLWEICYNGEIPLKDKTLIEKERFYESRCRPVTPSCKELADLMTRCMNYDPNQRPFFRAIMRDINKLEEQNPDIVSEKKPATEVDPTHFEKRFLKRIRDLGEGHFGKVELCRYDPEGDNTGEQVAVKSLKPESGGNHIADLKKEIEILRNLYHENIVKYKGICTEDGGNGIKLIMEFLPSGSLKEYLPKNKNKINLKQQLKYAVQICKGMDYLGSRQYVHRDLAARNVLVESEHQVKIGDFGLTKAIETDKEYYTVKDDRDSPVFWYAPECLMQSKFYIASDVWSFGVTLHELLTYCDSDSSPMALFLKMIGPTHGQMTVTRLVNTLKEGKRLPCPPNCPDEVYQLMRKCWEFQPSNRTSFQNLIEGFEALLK

The IC50 is the concentration at which inhibition is half-maximal. Consider `Cn1cc(Nc2ncc(Cl)c(N[C@H](CO)c3cc(F)cc(-c4cnn(C)c4)c3)n2)cn1` [Compound 137], for which the IC50 in assay [1] and in assay [2] was 1000 to 10000 nM each time.
`Cn1cc(Nc2ncc(Cl)c(N[C@H](CO)c3cc(F)cc(F)c3)n2)cn1` [Compound 142]: the half-maximal inhibitory concentration (IC50) is 1000 to 10000 nM in assay [1] and 100 to 1000 nM in assay [2].
The matching figures for `COc1cccc([C@@H](CO)Nc2nc(Nc3cnn(C(C)C)c3)ncc2Cl)c1` [Compound 106]: 1000 to 10000 nM and above 10000 nM.
The matching figures for `Cc1cnc(Nc2cnn(CC(F)F)c2)nc1N[C@H](CO)c1cc(F)ccc1F` [Compound 166]: 1000 to 10000 nM and 100 to 1000 nM.
Regarding `CNC(=O)Cn1cc(Nc2ncc(Cl)c(N[C@H](CO)c3cc(F)cc(-c4cnn(C)c4)c3)n2)cn1` [Compound 156], the half-inhibitory concentration (IC50) is at least 10000 nM in assay [1] and 1000 to 10000 nM in assay [2].
Take `CNC(=O)Cn1cc(Nc2ncc(Cl)c(NC(CO)c3ccccc3Cl)n2)cn1` (centres unmarked) [Compound 119]: the half-inhibitory concentration (IC50) in assay [1] lay in the range of 1000 to 10000 nM; in assay [2], 100 to 1000 nM.
The matching figures for `Cc1cnc(Nc2cnn(C)c2)nc1N[C@H](CO)c1cc(F)ccc1F` [Compound 163]: 100 to 1000 nM and 100 to 1000 nM.
As for `NC(=O)Cn1cc(Nc2ncc(F)c(N[C@H](CO)c3ccccc3)n2)cn1` [Compound 108], the concentration for half-maximal inhibition (IC50) in assay [1] and in assay [2] was 1000 to 10000 nM each time.
Regarding `CCn1cc(Nc2ncc(Cl)c(N[C@H](CO)c3ccccc3OC)n2)cn1` [Compound 95], the IC50 in assay [1] lay in the range of 1000 to 10000 nM; in assay [2], 100 to 1000 nM.
In the same order, the values of `CNC(=O)Cn1cc(Nc2ncc(Cl)c(N[C@H](CO)c3cc(F)cc(F)c3)n2)cn1` [Compound 145] are 100 to 1000 nM and below 100 nM.
In the same order, the values of `CNC(=O)Cn1cc(Nc2ncc(F)c(N[C@H](CO)c3cccc(-c4cnn(C)c4)c3)n2)cn1` [Compound 155] are at least 10000 nM and above 10000 nM.
The matching figures for `CNC(=O)Cn1cc(Nc2ncc(Cl)c(NC(CO)c3cc(F)ccc3F)n2)cn1` (centres unmarked) [Compound 130]: 100 to 1000 nM and below 100 nM.
With `CNC(=O)Cn1cc(Nc2ncc(Cl)c(N[C@H](CO)c3ccccc3F)n2)cn1` [Compound 100], the concentration for half-maximal inhibition (IC50) lay within 1000 to 10000 nM in assay [1] and 100 to 1000 nM in assay [2].
`CC(C)OCCn1cc(Nc2ncc(Cl)c(N[C@H](CO)c3ccccc3)n2)cn1` [Compound 114]: the 50% inhibitory concentration (IC50) in assay [1] and in assay [2] was 1000 to 10000 nM each time.
`CNC(=O)Cn1cc(Nc2ncc(F)c(N[C@H](CO)c3cc(F)cc(F)c3)n2)cn1` [Compound 161]: the concentration for half-maximal inhibition (IC50) in assay [1] and in assay [2] was 100 to 1000 nM in each case.
`Cn1cc(Nc2ncc(Cl)c(N[C@H](CO)c3ccccc3)n2)cn1` [Compound 4]: the IC50 in assay [1] and in assay [2] was 1000 to 10000 nM each time.

Source of the values: patent US20140179664A1, “Heterocyclyl Pyrimidine Analogues As JAK Inhibitors” (Cellzome Limited, priority 2011, published 2014).
